Values quoted from earlier work, collected in patent publication US9182414B2, “Methods for identifying a GLP-1 secretagogue” (Arena Pharmaceuticals, Inc., priority 2005, dated 2015).
Square brackets hold non-standard residues; d marks the D form. Peptide text beside a SMILES is read from it. * marks the point of attachment. NHPhenethyl = c1ccc(CCN*)cc1; Nphe = O=C(O)CNCc1ccccc1; PhAc = O=C(Cc1ccccc1)*; βAla = NCCC(=O)O

Molecular target: T1, BRS-3 (Homo sapiens, UniProt P32247)
T1 sequence (P32247 1-399): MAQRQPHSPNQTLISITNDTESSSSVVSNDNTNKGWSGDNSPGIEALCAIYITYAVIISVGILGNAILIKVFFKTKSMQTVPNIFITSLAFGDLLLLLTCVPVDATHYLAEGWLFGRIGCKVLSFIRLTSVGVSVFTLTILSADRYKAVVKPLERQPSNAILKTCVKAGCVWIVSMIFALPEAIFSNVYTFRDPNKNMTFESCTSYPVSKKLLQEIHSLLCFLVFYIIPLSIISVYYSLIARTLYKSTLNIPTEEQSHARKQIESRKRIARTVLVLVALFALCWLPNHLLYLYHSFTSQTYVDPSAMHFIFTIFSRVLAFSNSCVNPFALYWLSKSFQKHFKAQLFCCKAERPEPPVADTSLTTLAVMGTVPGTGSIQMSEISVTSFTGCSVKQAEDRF
Settings: BRS-3 over GRP-R and NMB-R; description taken from literature

Compound | selectivity as BRS-3 agonist
NC(=O)CC[C@H](NC(=O)Cc1cc2ccccc2[nH]1)C(=O)N[C@H](Cc1c[nH]c2ccccc12)C(=O)NCCc1ccccc1 [Compound 2, N1-{(1R)-2-(1H-3-Indolyl)-1-[1-(2-phenylethyl)carbamoyl]ethyl}-(2S)-2-[(1H-2-indolylmethyl)carboxamido]pentanediamide] | selective BRS-3 agonists
O=C(Cc1cc2ccccc2[nH]1)NNC(=O)N[C@H](Cc1c[nH]c2ccccc12)C(=O)NCCc1ccccc1 [Compound 20, N1-(2-Phenylethyl)-(2R)-2-{[N′-(2-(1H-2-indolyl)ethanoyl)hydrazino]carboxamido}-3-(1H-3-indolyl)propanamide] | selective BRS-3 agonists
O=C(CNCc1ccc(Cl)cc1)N[C@H](Cc1c[nH]c2ccccc12)C(=O)NCCc1ccccc1 [Compound 10, N1-(2-Phenylethyl)-(2R)-2-{[(4-chlorobenzyl)amino]-methylcarboxamido}-3-(1H-3-indolyl)propanamide] | selective BRS-3 agonists
C[C@H](NC(=O)Cc1ccc(Cl)cc1)C(=O)N[C@H](Cc1c[nH]c2ccccc12)C(=O)NCCc1ccccc1 [Compound 4, N1-(2-Phenylethyl)-(2R)-2-{[(1S)-1-((4-chlorobenzyl)-carboxamido)ethyl]carboxamido}-3-(1H-3-indolyl)propanamide] | selective BRS-3 agonists
O=C(NN=Cc1ccco1)N[C@H](Cc1c[nH]c2ccccc12)C(=O)NCCc1ccccc1 [Compound 22, N1-(2-Phenylethyl)-(2R)-2-{[N′-(furan-2-ylmethylene)hydrazino]carboxamido}-3-(1H-3-indolyl)propanamide] | selective BRS-3 agonists
O=C(NNCc1ccccc1)N[C@H](Cc1c[nH]c2ccccc12)C(=O)NCCc1ccccc1 [Compound 23, N1-(2-Phenylethyl)-(2R)-2-{[N′-(benzyl)hydrazino]carboxamido}-3-(1H-3-indolyl)propanamide] | selective BRS-3 agonists
Ac-FWAV[βAla]HRW-NH2 [Compound 33] | selective BRS-3 agonists
CC(NCc1ccc(Cl)cc1)C(=O)N[C@H](Cc1c[nH]c2ccccc12)C(=O)NCCc1ccccc1 (stereo partly drawn) [Compound 14, N1-(2-Phenylethyl)-(2R)-2-{[1-((4-chlorobenzyl)amino)ethyl]carboxamido}-3-(1H-3-indolyl)propanamide] | selective BRS-3 agonists
O=C(CC1NCCc2ccccc21)NNC(=O)N[C@H](Cc1c[nH]c2ccccc12)C(=O)NCCc1ccccc1 (stereo partly drawn) [Compound 19, N1-(2-Phenylethyl)-(2R)-2-{{N′-(2-(1,2,3,4-tetrahydro-1-isoquinolinyl)ethanoyl)hydrazino]carboxamido}-3-(1H-3-indolyl)propanamide] | selective BRS-3 agonists
O=C(NNCc1ccco1)N[C@H](Cc1c[nH]c2ccccc12)C(=O)NCCc1ccccc1 [Compound 25, N1-(2-Phenylethyl)-(2R)-2-{[N′-(2-furylmethyl)hydrazino]carboxamido}-3-(1H-3-indolyl)propanamide] | selective BRS-3 agonists
O=C(CN1CCC(Cc2ccccc2)CC1)N[C@H](Cc1c[nH]c2ccccc12)C(=O)NCCc1ccccc1 [Compound 27, N1-(2-Phenylethyl)-(2R)-2-{[(4-benzylpiperidino)methyl]carboxamido}-3-(1H-3-indolyl)propanamide] | selective BRS-3 agonists
C[C@H](NC(=O)Cc1ccccc1)C(=O)N[C@H](Cc1c[nH]c2ccccc12)C(=O)NCCc1ccccc1 [Compound 3, N1-(2-Phenylethyl)-(2R)-2-{[(1S)-1-(benzylcarboxamido)ethyl]carboxamido}-3-(1H-3-indolyl)propanamide] (PhAc-Ala-[dW]-NHPhenethyl) | selective BRS-3 agonists
C[C@H](NC(=O)Cc1cccnc1)C(=O)N[C@H](Cc1c[nH]c2ccccc12)C(=O)NCCc1ccccc1 [Compound 6, N1-(2-Phenylethyl)-(2R)-2-{[(1S)-1-((3-pyridyl)methylcarboxamido)ethyl]carboxamido}-3-(1H-3-indolyl)propanamide] | selective BRS-3 agonists
O=C(CNCCc1ccccc1)N[C@H](Cc1c[nH]c2ccccc12)C(=O)NCCc1ccccc1 [Compound 12, N1-(2-Phenylethyl)-(2R)-2-{[1-(2-phenylethyl)amino]-methylcarboxamido}-3-(1H-3-indolyl)propanamide] | selective BRS-3 agonists
O=C(NNC(=O)c1ccccc1)N[C@H](Cc1c[nH]c2ccccc12)C(=O)NCCc1ccccc1 [Compound 16, N1-(2-Phenylethyl)-(2R)-2-{{N′-(benzoyl)hydrazino]carboxamido}-3-(1H-3-indolyl)propanamide] | selective BRS-3 agonists
CC(NCCc1ccccc1)C(=O)N[C@H](Cc1c[nH]c2ccccc12)C(=O)NCCc1ccccc1 (stereo partly drawn) [Compound 15, N1-(2-Phenylethyl)-(2R)-2-{[1-(1-(2-phenylethyl)amino)ethyl]carboxamido}-3-(1H-3-indolyl)propanamide] | selective BRS-3 agonists

Compound | selectivity as BRS-3 agonist
CC(NCc1ccccc1)C(=O)N[C@H](Cc1c[nH]c2ccccc12)C(=O)NCCc1ccccc1 (stereo partly shown) [Compound 13] | selective BRS-3 agonists
NC(=O)CC[C@H](NC(=O)CCc1ccc(Cl)cc1)C(=O)N[C@H](Cc1c[nH]c2ccccc12)C(=O)NCCc1ccccc1 [Compound 1, N1-{(1R)-2-(1H-3-Indolyl)-1-[1-(2-phenylethyl)carbamoyl]ethyl}-(2S)-2-[1-(2-(4-chlorophenyl)ethyl)carboxamido]pentanediamide] | selective BRS-3 agonists
O=C(NNC(=O)c1ccc(Cl)cc1)N[C@H](Cc1c[nH]c2ccccc12)C(=O)NCCc1ccccc1 [Compound 17, N1-(2-Phenylethyl)-(2R)-2-{{N′-(4-chlorobenzoyl)-hydrazino]carboxamido}-3-(1H-3-indolyl)propanamide] | selective BRS-3 agonists
O=C(Cc1cccnc1)NNC(=O)N[C@H](Cc1c[nH]c2ccccc12)C(=O)NCCc1ccccc1 [Compound 18, N1-(2-Phenylethyl)-(2R)-2-{[N′-(2-(3-pyridyl)ethanoyl)hydrazino]carboxamido}-3-(1H-3-indolyl)propanamide] | selective BRS-3 agonists
Ac-Phe-Trp-Ala-His(τBzl)-βAla-His-Arg-NH2 [Compound 32] | selective BRS-3 agonists
O=C(CN1CCN(Cc2ccccc2)CC1)N[C@H](Cc1c[nH]c2ccccc12)C(=O)NCCc1ccccc1 [Compound 26] | selective BRS-3 agonists
C[C@H](NC(=O)Cc1cc2ccccc2[nH]1)C(=O)N[C@H](Cc1c[nH]c2ccccc12)C(=O)NCCc1ccccc1 [Compound 8, N1-(2-Phenylethyl)-(2R)-2-{[(1S)-1-((1H2-indolyl)methylcarboxamido)ethyl]carboxamido}-3-(1H-3-indolyl)propanamide] | selective BRS-3 agonists
Ac-Phe-Trp-Ala-His(τBzl)-Nip-Gly-Arg-NH2 [Compound 31] | selective BRS-3 agonists
C[C@H](NC(=O)CC1NCCc2ccccc21)C(=O)N[C@H](Cc1c[nH]c2ccccc12)C(=O)NCCc1ccccc1 (stereo partly drawn) [Compound 7, N1-(2-Phenylethyl)-(2R)-2-{[(1S)-1-((1,2,3,4-tetrahydro-1-isoquinolinyl)methylcarboxamido)ethyl]carboxamido}-3-(1H-3-indolyl)propanamide] | selective BRS-3 agonists
O=C(NN=Cc1ccccc1)N[C@H](Cc1c[nH]c2ccccc12)C(=O)NCCc1ccccc1 [Compound 21, N1-(2-Phenylethyl)-(2R)-2-{[N′-(phenylmethylene)-hydrazino]carboxamido}-3-(1H-3-indolyl)propanamide] | selective BRS-3 agonists
O=C(CNCc1ccccc1)N[C@H](Cc1c[nH]c2ccccc12)C(=O)NCCc1ccccc1 [Compound 9, N1-(2-Phenylethyl)-(2R)-2-{[(benzyl)amino]methylcarboxamido}-3-(1H-3-indolyl)propanamide] (H-[Nphe]-[dW]-NHPhenethyl) | selective BRS-3 agonists
[D-Tyr^6,βAla^11,Phe^13,Nle^14]Bombesin(6-14) [Compound 34] | non-selective for BRS-3 over GRP-R and NMB-R
O=C(CNCc1cccnc1)N[C@H](Cc1c[nH]c2ccccc12)C(=O)NCCc1ccccc1 [Compound 11, N1-(2-Phenylethyl)-(2R)-2-{[(3-pyridyl)methylamino]-methylcarboxamido}-3-(1H-3-indolyl)propanamide] | selective BRS-3 agonists
O=C(NNCc1ccc(Cl)cc1)N[C@H](Cc1c[nH]c2ccccc12)C(=O)NCCc1ccccc1 [Compound 24, N1-(2-Phenylethyl)-(2R)-2-{[N′-(4-chlorobenzyl)hydrazino]carboxamido}-3-(1H-3-indolyl)propanamide] | selective BRS-3 agonists
C[C@H](NC(=O)Cc1ccc2c(c1)OCO2)C(=O)N[C@H](Cc1c[nH]c2ccccc12)C(=O)NCCc1ccccc1 [Compound 5, N1-(2-Phenylethyl)-(2R)-2-{[(1S)-1-((1,3-benzodioxol-5-ylmethyl)carboxamido)ethyl]carboxamido}-3-(1H-3-indolyl)propanamide] | selective BRS-3 agonists
